Values after ≈ are worked out from the molar mass of the structure shown. Read-outs that look alike come from different tables or passages of the source.
Columns and labels:
MCF-7 = assay: cells; type: cell-based, human; conditions: for GI50: Homo sapiens, MCF7, read-out: Breast MCF-7 GI50
Method: (§1) Cytotoxicity assays were performed by the sulforhodamine B method, in which inhibition of formation of cellular protein is measured (Ref. 42). The mitotic index of MCF-7 breast cancer cells was determined as described previously (Ref. 27), except that cells were incubated in the presence of drug for 16 h prior to addition of the DNA stain.

BXPC-3 = assay: cells; type: cell-based, human; conditions: for GI50: Homo sapiens, read-out: Pancreas BXPC-3 GI50
Method: as §1

SF-295 = assay: cells; type: cell-based, human; conditions: for GI50: Homo sapiens, read-out: CNS SF-295 GI50
Method: as §1

KM20L2 = assay: cells; type: cell-based, human; conditions: for GI50: Homo sapiens, KM-20L2, read-out: Colon KM20L2 GI50
Method: as §1

DU145 = assay: cells; type: cell-based, human; conditions: for GI50: Homo sapiens, DU-145, read-out: Prostate DU145 GI50
Method: as §1

NCI-H460 = assay: cells; type: cell-based, human; conditions: for GI50: Homo sapiens, read-out: Lung-NSC NCI-H460 GI50
Method: as §1

[1] = test system: P388 lymphocytic leukemia cell line; type: cell-based; conditions: murine P388 lymphocytic leukemia cell line
Method: as §1

[2] = test system: Cryptococcus neoformans ATCC 90112; assay: Broth microdilution assay, Cryptococcus neoformans; type: cell-based; conditions: ATCC90112
Source text: (§2) Compounds were screened in broth microdilution assays according to National Committee for Clinical Laboratory Standards (Ref. 43-44). Assays were repeated at least twice on separate days.

[3] = test system: human cancer cell lines and murine P388; assay: cells; type: cell-based; conditions: for IC50: Mus musculus
Method: as §1

[4] = test system: Bovine brain tubulin (colchicine site); assay: Inhibition of [3H]colchicine binding to tubulin; conditions: 1.0 μM tubulin, 5.0 μM [3H]colchicine
Method: (§3) Bovine brain tubulin was prepared and the tubulin assembly and colchicine binding assays were performed as described previously. In the assembly assay, reaction mixtures contained 1.0 mg/mL (10 μM) tubulin and varying concentrations of potential inhibitors. In the colchicine binding assay reaction mixtures contained 0.1 mg/mL (1.0 μM) tubulin, 5.0 μM [^3H]colchicine, and potential inhibitor as indicated. The vinblastine binding assay was performed as described previously for GTP binding by centrifugal gel filtration, except that a Beckman Allegra 6KR centrifuge equipped with a GH-3.8A swinging bucket rotor was used and the syringe-columns were centrifuged at 2,000 rpm (Ref. 38-41). Reaction mixtures contained 0.5 mg/mL (5.0 μM) tubulin, 5 μM [^3H]vinblastine, potential inhibitor as indicated, 0.5 mM MgCl2, 0.1 M 4-morpholineethanesulfonate (1.0 M stock solution adjusted to pH 6.9 with NaOH, and 4% (v/v) dimethyl sulfoxide. Incubation (30 min) and centrifugal gel filtration were performed at room temperature (20-22° C.).

[5] = test system: Bovine brain tubulin (vinca domain); assay: Inhibition of [3H]vinblastine binding to tubulin; conditions: 5.0 μM tubulin, 5 μM [3H]vinblastine
Method: as §3

[6] = test system: Neisseria gonorrhoeae ATCC 49226; assay: Broth microdilution assay, Neisseria gonorrhoeae; type: cell-based
Source text: as §2

[7] = test system: Enterococcus faecalis ATCC 29212; assay: Broth microdilution assay, Enterococcus faecalis; type: cell-based
Source text: as §2

[8] = Solubility in distilled water; type: physicochemical; conditions: for Solubility / solubility: 1 mL distilled water at 25° C.
[9] = P388, mean over the cell lines of Table 2, read-out: Mean

| Compound | GI50 (MCF-7) | GI50 (BXPC-3) | GI50 (SF-295) | GI50 (KM20L2) | GI50 (DU145) | GI50 (NCI-H460) | Leukemia P388 ED50 [1] | IC50 [3, 9] | Breast MCF-7 GI50 (MCF-7) | CNS SF-295 GI50 (SF-295) | Colon KM20L2 GI50 (KM20L2) | Prostate DU145 GI50 (DU145) | Lung-NSC NCI-H460 GI50 (NCI-H460) | water solubility (in words) [8] | other results |
| --- | --- | --- | --- | --- | --- | --- | --- | --- | --- | --- | --- | --- | --- | --- | --- |
| COc1ccc(/C=C\c2cc(OC)c3c(c2)OCO3)cc1NC(=O)[C@H](C)[C@@H](OC)[C@@H]1CCCN1C(=O)OC(C)(C)C [Compound 13, 3,4-Methylenedioxy-5,4′-dimethoxy-3′-(N^α-Boc-L-Dap)-amido-Z-stilbene] | 0.53 µg/mL (≈ 0.932 µM) | 0.58 µg/mL (≈ 1.02 µM) | 0.75 µg/mL (≈ 1.32 µM) | 1.9 µg/mL (≈ 3.34 µM) | 0.38 µg/mL (≈ 0.668 µM) | 0.52 µg/mL (≈ 0.914 µM) | 0.225 µg/mL | 0.7 µg/mL (≈ 1.23 µM) |  |  |  |  |  |  | MIC [2]: 64 µg/mL (≈ 113 µM) |
| CC[C@H](C)[C@@H]([C@@H](CC(=O)N1CCC[C@H]1[C@H](OC)[C@@H](C)C(=O)O)OC)N(C)C(=O)[C@@H](NC(=O)[C@H](C(C)C)N(C)C)C(C)C [Compound 4b, Dov-Val-Dil-Dap] |  |  |  |  |  |  |  |  |  |  |  |  |  |  | Inhibition of colchicine binding % Inhibition ± SD ([4]; 50 μM inhibitor): 5.2 ± 3%; Inhibition of vinblastine binding % Inhibition ± SD ([5]; 10 μM inhibitor): 16 ± 6%; Inhibition of vinblastine binding % Inhibition ± SD ([5]; 80 μM inhibitor): 68 ± 0.4% |
| COc1ccc(/C=C\c2cc(OC)c3c(c2)OCO3)cc1N [Compound 1a, 3,4-Methylenedioxy-5,4^1-Dimethoxy-3^1-Amino-Z-Stilbene, reference compound] |  |  |  |  |  |  |  |  |  |  |  |  |  |  | IC50 ([3]; P388, read-out: Mean): 0.013 µg/mL (≈ 0.0434 µM) |
| COc1ccc(C=Cc2cc(OC)c3c(c2)OCO3)cc1N [Compound 1b] |  |  |  |  |  |  |  |  |  |  |  |  |  |  | Inhibition of colchicine binding % Inhibition ± SD ([4]; 2 μM inhibitor): 85 ± 3%; Inhibition of vinblastine binding % Inhibition ± SD ([5]; 10 μM inhibitor): 0%; Inhibition of vinblastine binding % Inhibition ± SD ([5]; 80 μM inhibitor): 0% |
| CC[C@H](C)[C@@H]([C@@H](CC(=O)N1CCC[C@H]1[C@H](OC)[C@@H](C)C(=O)N[C@@H](Cc1ccccc1)c1nccs1)OC)N(C)C(=O)[C@@H](NC(=O)[C@H](C(C)C)N(C)C)C(C)C [Compound 4a, Dolastatin 10] |  |  |  |  |  |  |  |  |  |  |  |  |  |  | Inhibition of colchicine binding % Inhibition ± SD ([4]; 2 μM inhibitor): 13 ± 5%; Inhibition of vinblastine binding % Inhibition ± SD ([5]; 10 μM inhibitor): 96 ± 0.7% |
| COc1ccc(/C=C\c2cc(OC)c3c(c2)OCO3)cc1NC(=O)[C@H](CC(=O)OC(C)(C)C)NC(=O)OC(C)(C)C [Compound 10, 3,4-Methylenedioxy-5,4′-dimethoxy-3′-(O^β-tert-butyl-N^α-Boc-L-Asp)-amido-Z-stilbene] | 2.4 µg/mL (≈ 4.21 µM) | 3.4 µg/mL (≈ 5.96 µM) | 1.7 µg/mL (≈ 2.98 µM) | 2.3 µg/mL (≈ 4.03 µM) | 3 µg/mL (≈ 5.26 µM) | 3.8 µg/mL (≈ 6.66 µM) | 0.385 µg/mL | 2.4 µg/mL (≈ 4.21 µM) |  |  |  |  |  |  |  |
| COc1ccc(/C=C\c2cc(OC)c3c(c2)OCO3)cc1NC(=O)[C@H](Cc1ccc(OP(=O)(OCc2ccccc2)OCc2ccccc2)cc1)NP(=O)(OCc1ccccc1)OCc1ccccc1 [Compound 5, 3,4-Methylenedioxy-5,4′-dimethoxy-3′-[O,N^α-di(bis-benzylphosphoryl)-L-Tyr]-amido-Z-stilbene] |  |  |  |  |  |  | >10 µg/mL |  |  |  |  |  |  |  |  |
| COc1ccc(/C=C\c2cc(OC)c3c(c2)OCO3)cc1NC(=O)[C@@H](N)Cc1ccc(OP(=O)(O)O)cc1 [Compound 3a, 3,4-Methylenedioxy-5,4′-dimethoxy-3′-(O-phosphoryl-N^α-L-Tyr)-amido-Z-stilbene] |  |  |  |  |  |  | >10 µg/mL |  | >1 µg/mL | >1 µg/mL | >1 µg/mL | >1 µg/mL | >1 µg/mL | only sparing water solubility | MIC [6]: 0.125 µg/mL (≈ 0.23 µM); MIC [7]: 64 µg/mL (≈ 118 µM); Pancreas BXPC-3 GI50 (BXPC-3): >1 µg/mL; Solubility [8]: <100 µg/mL |
| COc1ccc(/C=C\c2cc(OC)c3c(c2)OCO3)cc1NC(=O)[C@@H](N)CC(=O)[O-].[Na+] [Compound 11, Sodium 3,4-methylenedioxy-5,4′-dimethoxy-3′-(N^α-L-Asp)-amido-Z-stilbene] | 0.51 µg/mL | 0.38 µg/mL | 0.25 µg/mL | 0.19 µg/mL | 0.33 µg/mL | 0.3 µg/mL | 0.361 µg/mL | 0.33 µg/mL |  |  |  |  |  | only sparing water solubility | Solubility [8]: <100 µg/mL; solubility [8]: < 100 µg/mL; melting point: 168 to 170 °C |
| COc1ccc(/C=C\c2cc(OC)c3c(c2)OCO3)cc1NC(=O)[C@H](Cc1ccc(OC(C)(C)C)cc1)NC(=O)OCc1ccccc1 [Compound 7, 3,4-Methylenedioxy-5,4′-dimethoxy-3′-(O-tert-butyl-N^α-Z-L-Tyr)-amido-Z-stilbene] |  |  |  |  |  |  | 0.380 µg/mL |  | 0.36 µg/mL | 0.44 µg/mL | 1.8 µg/mL | 0.39 µg/mL | 0.41 µg/mL |  | Pancreas BXPC-3 GI50 (BXPC-3): 0.049 µg/mL; Mean ([3]; mean over the cell lines of Table 2): 0.61 µg/mL |
| COc1ccc(/C=C\c2cc(OC)c3c(c2)OCO3)cc1NC(=O)[C@@H](N)Cc1ccc(O)cc1.Cl [Compound 9, 3,4-Methylenedioxy-5,4′-dimethoxy-3′-(N^α-L-Tyr)-amido-Z-stilbene hydrochloride] | 0.041 µg/mL | 0.064 µg/mL | 0.064 µg/mL | 0.034 µg/mL | 0.08 µg/mL | 0.096 µg/mL | 0.0329 µg/mL | 0.059 µg/mL |  |  |  |  |  | only sparing water solubility | solubility [8]: < 100 µg/mL; Solubility ([8]; hydrochloride): <100 µg/mL; melting point: 169 to 170.5 °C; inhibition of mini-panel of human cancer cell lines (in words) ([3]; mini-panel of human cancer cell lines): strongly inhibiting |
| COc1ccc(/C=C\c2cc(OC)c3c(c2)OCO3)cc1NC(=O)[C@H](Cc1ccc(OP(=O)(OCc2ccccc2)OCc2ccccc2)cc1)NC(=O)OCc1ccccc1 [Compound 8, 3,4-Methylenedioxy-5,4′-dimethoxy-3′-(O-bis-benzylphosphoryl-N^α-Z-L-Tyr)-amido-Z-stilbene] |  |  |  |  |  |  | 0.133 µg/mL |  | >10 µg/mL | >10 µg/mL | >10 µg/mL | >10 µg/mL | >10 µg/mL |  | MIC [7]: 64 µg/mL (≈ 74.7 µM); Pancreas BXPC-3 GI50 (BXPC-3): >10 µg/mL |
| Sodium 3,4-methylenedioxy-5,4′-dimethoxy-3′-(L-Tyr)-amido-Z-stilbene 3′-O,N^α-diphosphate [Compound 6] |  |  |  |  |  |  | 0.270 µg/mL |  | 1.3 µg/mL | >1 µg/mL | >1 µg/mL | >1 µg/mL | >1 µg/mL | only sparing water solubility | MIC [6]: 4 µg/mL; Solubility [8]: <100 µg/mL |

Reference: patent US20090221666A1, “STILBENE DERIVATIVES AND METHODS OF INHIBITING CANCER CELL GROWTH AND MICROBIAL GROWTH” (priority 2005, published 2009)
